Reference: US12343326B2, “Psychoactive medicines and their use for treating psychiatric and neurological conditions and disorders” (Transcend Therapeutics, Inc., priority 2021, dated 2025)

Key:
Assay in all cases: β-arrestin based GPCR screen (PathHunter / GPCRmax), agonist mode
Type in all cases: cell-based
Design in all cases: host or cells: PathHunter cell lines
168 GPCRs [1] = biological target: 168 GPCRs (Homo sapiens, UniProt P11229); conditions: CHRM1, Agonist
Experimental: (§1) For agonist determination, cells were incubated with sample to induce response. […] Vehicle concentration was 1%.

168 GPCRs [2] = biological target: 168 GPCRs (Homo sapiens, UniProt P21453)
Sequence of 168 GPCRs (Homo sapiens, UniProt P21453) (P21453 whole entry): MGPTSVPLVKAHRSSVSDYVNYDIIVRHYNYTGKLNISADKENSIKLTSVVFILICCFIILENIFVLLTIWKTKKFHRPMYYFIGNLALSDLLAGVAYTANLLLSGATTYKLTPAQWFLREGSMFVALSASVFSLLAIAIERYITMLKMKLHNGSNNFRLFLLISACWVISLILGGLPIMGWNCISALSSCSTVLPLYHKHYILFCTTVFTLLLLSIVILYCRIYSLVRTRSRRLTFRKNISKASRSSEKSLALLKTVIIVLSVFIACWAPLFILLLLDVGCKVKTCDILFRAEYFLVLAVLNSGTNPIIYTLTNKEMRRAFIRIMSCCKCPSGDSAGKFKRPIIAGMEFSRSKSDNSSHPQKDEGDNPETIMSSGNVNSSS
Experimental: as §1

168 GPCRs [3] = biological target: 168 GPCRs (Homo sapiens, UniProt P22888); conditions: LHCGR
Sequence of 168 GPCRs (Homo sapiens, UniProt P22888) (P22888 27-699): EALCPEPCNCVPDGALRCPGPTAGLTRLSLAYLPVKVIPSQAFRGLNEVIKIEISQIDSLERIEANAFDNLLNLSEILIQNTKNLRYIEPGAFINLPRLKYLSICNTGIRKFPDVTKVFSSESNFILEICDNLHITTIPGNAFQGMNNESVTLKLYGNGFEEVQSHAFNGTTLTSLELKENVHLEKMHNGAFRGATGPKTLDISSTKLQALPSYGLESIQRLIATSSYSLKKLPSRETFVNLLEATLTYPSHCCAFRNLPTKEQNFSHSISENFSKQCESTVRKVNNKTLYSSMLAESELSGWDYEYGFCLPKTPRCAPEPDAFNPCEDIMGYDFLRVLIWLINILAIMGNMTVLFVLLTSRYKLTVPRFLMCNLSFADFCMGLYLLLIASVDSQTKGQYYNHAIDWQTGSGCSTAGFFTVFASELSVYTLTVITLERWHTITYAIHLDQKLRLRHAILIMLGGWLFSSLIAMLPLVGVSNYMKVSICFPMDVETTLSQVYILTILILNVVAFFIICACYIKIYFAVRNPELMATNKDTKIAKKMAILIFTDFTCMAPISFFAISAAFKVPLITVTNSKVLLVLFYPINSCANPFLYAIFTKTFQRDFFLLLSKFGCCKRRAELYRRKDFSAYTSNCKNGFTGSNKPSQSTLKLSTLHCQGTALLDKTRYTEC
Experimental: as §1

168 GPCRs [4] = biological target: 168 GPCRs (Homo sapiens, UniProt P25106)
Experimental: as §1

168 GPCRs [5] = biological target: 168 GPCRs (Homo sapiens, UniProt P28566); conditions: HTR1E
Sequence of 168 GPCRs (Homo sapiens, UniProt P28566) (P28566 whole entry): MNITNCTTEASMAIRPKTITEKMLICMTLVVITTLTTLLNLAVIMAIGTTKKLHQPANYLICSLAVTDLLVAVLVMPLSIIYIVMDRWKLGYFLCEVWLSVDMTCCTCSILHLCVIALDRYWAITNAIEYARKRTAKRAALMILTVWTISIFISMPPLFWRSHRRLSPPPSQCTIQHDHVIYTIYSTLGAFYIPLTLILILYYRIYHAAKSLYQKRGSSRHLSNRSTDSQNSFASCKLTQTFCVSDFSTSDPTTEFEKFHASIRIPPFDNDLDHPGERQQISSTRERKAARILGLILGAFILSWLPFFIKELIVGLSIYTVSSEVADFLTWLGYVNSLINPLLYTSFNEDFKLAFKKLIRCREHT
Experimental: as §1

168 GPCRs [6] = biological target: 168 GPCRs (Homo sapiens, UniProt P32245); conditions: MC4R
Sequence of 168 GPCRs (Homo sapiens, UniProt P32245) (P32245 whole entry): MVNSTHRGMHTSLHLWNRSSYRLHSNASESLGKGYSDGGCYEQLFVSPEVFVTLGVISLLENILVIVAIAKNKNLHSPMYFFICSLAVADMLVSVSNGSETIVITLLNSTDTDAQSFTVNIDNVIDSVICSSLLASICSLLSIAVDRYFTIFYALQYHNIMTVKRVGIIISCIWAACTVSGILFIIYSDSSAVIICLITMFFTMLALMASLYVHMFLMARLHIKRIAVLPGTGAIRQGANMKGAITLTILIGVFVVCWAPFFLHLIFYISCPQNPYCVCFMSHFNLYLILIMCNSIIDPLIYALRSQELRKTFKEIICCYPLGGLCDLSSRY
Experimental: as §1

168 GPCRs [7] = biological target: T1, 168 GPCRs (Homo sapiens, UniProt P32248); conditions: CCR7, Agonist
T1 sequence (P32248 25-378): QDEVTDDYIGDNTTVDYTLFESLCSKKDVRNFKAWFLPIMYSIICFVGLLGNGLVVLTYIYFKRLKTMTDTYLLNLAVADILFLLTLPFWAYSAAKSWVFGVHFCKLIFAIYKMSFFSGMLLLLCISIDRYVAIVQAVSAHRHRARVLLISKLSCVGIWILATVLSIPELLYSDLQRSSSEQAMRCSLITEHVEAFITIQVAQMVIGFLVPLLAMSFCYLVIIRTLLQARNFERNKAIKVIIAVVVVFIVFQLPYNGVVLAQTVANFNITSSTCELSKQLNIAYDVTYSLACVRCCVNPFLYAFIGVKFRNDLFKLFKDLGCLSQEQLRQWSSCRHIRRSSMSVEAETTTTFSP
Experimental: as §1

168 GPCRs [8] = biological target: 168 GPCRs (Homo sapiens, UniProt P35346)
Experimental: as §1

168 GPCRs [9] = biological target: 168 GPCRs (Homo sapiens, UniProt P37288); conditions: AVPR1A, Agonist
Sequence of 168 GPCRs (Homo sapiens, UniProt P37288) (P37288 whole entry): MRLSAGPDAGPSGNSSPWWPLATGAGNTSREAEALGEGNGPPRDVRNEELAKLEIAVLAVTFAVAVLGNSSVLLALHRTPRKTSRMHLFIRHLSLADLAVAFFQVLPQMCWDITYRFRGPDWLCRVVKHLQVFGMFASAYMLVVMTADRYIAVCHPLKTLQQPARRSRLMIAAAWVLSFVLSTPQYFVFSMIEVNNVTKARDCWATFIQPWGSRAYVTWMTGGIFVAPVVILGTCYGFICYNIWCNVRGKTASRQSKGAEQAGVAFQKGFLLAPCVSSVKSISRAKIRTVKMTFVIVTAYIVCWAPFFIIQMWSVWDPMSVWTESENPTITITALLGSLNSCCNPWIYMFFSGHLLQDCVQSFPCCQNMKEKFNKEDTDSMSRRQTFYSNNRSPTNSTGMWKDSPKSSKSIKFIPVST
Experimental: as §1

168 GPCRs [10] = biological target: 168 GPCRs (Homo sapiens, UniProt P47211)
Sequence of 168 GPCRs (Homo sapiens, UniProt P47211) (P47211 whole entry): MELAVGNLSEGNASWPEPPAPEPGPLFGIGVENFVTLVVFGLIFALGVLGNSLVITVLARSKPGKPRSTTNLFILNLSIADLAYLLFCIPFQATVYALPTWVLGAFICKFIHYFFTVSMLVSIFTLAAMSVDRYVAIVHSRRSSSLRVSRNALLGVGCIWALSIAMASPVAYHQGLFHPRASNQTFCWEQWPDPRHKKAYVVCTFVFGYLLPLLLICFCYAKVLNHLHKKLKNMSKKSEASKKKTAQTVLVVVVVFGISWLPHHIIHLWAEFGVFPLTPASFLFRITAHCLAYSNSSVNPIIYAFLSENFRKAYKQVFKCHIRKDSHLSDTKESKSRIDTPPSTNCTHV
Experimental: as §1

168 GPCRs [11] = biological target: 168 GPCRs (Homo sapiens, UniProt P48146)
Sequence of 168 GPCRs (Homo sapiens, UniProt P48146) (P48146 whole entry): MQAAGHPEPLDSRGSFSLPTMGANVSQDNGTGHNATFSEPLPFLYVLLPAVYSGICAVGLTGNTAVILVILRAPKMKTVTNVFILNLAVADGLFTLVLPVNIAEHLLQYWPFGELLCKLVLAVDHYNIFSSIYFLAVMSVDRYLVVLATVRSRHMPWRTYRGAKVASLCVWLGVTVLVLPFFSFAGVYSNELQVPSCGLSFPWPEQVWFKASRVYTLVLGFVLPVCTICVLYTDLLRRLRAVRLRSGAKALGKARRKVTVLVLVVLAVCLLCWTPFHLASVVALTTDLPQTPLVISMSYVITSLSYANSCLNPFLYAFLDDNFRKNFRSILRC
Experimental: as §1

168 GPCRs [12] = biological target: 168 GPCRs (Homo sapiens, UniProt P49019); conditions: GPR109B
Experimental: as §1

168 GPCRs [13] = biological target: 168 GPCRs (Homo sapiens, UniProt P49683); conditions: PRLHR
Sequence of 168 GPCRs (Homo sapiens, UniProt P49683) (P49683 whole entry): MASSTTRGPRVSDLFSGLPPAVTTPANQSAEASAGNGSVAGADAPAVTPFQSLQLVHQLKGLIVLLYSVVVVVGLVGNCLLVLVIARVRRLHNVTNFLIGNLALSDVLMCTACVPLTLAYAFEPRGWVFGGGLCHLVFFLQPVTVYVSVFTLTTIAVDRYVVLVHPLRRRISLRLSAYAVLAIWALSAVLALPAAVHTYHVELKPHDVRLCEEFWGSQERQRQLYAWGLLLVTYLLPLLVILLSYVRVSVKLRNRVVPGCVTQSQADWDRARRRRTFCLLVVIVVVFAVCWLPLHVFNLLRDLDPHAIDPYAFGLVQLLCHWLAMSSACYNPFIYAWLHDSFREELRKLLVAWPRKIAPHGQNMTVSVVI
Experimental: as §1

168 GPCRs [14] = biological target: 168 GPCRs (Homo sapiens, UniProt P51684); conditions: CCR6, Agonist
Experimental: as §1

168 GPCRs [15] = biological target: 168 GPCRs (Homo sapiens, UniProt Q15077)
Experimental: as §1

168 GPCRs [16] = biological target: 168 GPCRs (Homo sapiens, UniProt Q8NFJ6)
Sequence of 168 GPCRs (Homo sapiens, UniProt Q8NFJ6) (Q8NFJ6 whole entry): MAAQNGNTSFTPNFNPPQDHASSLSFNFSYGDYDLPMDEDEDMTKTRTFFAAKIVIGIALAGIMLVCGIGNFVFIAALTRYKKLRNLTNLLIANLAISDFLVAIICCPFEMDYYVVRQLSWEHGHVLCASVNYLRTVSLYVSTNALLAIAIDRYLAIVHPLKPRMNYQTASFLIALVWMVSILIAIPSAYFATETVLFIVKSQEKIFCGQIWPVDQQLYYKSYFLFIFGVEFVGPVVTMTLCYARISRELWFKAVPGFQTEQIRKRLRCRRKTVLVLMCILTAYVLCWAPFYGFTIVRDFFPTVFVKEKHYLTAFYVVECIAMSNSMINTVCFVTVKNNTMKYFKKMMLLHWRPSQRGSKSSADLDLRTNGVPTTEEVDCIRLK
Experimental: as §1

168 GPCRs [17] = biological target: 168 GPCRs (Homo sapiens, UniProt Q96P65)
Sequence of 168 GPCRs (Homo sapiens, UniProt Q96P65) (Q96P65 whole entry): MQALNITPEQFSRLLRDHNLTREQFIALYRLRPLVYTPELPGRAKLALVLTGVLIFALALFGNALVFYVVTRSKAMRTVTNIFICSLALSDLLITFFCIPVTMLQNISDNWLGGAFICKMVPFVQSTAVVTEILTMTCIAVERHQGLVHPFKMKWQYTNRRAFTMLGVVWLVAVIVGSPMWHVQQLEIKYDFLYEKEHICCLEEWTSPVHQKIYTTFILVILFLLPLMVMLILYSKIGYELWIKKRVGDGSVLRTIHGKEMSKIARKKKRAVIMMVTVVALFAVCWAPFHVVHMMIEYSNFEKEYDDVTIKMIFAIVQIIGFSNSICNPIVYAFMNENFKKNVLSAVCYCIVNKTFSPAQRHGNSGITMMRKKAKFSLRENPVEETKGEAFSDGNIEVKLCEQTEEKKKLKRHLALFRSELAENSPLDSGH
Experimental: as §1

168 GPCRs [18] = biological target: 168 GPCRs (Homo sapiens, UniProt Q9HB89); conditions: NMU1R
Experimental: as §1

168 GPCRs [19] = biological target: 168 GPCRs (Homo sapiens, UniProt Q9P296); conditions: C5L2, Agonist
Sequence of 168 GPCRs (Homo sapiens, UniProt Q9P296) (Q9P296 whole entry): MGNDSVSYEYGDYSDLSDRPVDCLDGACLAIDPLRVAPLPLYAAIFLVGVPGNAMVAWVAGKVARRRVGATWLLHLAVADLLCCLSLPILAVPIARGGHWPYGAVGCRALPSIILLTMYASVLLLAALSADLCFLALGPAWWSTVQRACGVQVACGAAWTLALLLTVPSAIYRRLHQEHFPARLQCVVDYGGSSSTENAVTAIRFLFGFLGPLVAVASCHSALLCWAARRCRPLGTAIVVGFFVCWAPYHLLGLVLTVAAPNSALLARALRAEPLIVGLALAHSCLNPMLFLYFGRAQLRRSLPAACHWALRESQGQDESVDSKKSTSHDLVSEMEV
Experimental: as §1

Sequence of 168 GPCRs (Homo sapiens, UniProt P11229) (P11229 whole entry): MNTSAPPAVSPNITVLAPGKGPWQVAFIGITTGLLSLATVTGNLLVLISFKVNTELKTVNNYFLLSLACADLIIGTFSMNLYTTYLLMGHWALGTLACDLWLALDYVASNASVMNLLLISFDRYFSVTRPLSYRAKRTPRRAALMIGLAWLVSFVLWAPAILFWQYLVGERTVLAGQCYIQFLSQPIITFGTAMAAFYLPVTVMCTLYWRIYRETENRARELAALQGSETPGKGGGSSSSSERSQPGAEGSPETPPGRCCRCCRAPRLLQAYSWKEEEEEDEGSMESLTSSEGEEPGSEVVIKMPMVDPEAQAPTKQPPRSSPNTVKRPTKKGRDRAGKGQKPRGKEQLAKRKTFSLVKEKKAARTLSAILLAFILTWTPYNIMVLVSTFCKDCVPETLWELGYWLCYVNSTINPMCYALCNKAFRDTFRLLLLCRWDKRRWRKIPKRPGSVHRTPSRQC

CNC(C)C(=O)c1ccc2c(c1)OCO2 (centres unmarked) [methylone, 3,4-methylenedioxy-N-methylcathinone]
activity at 1 µM (168 GPCRs [1]; 1 uM): -9.1% | activity at 10 µM (168 GPCRs [1]; 10 uM): 8.5% | activity at 10 µM (168 GPCRs [2]; EDG1, Agonist mode, 10 uM): 0.4% | activity at 1 µM (168 GPCRs [2]; EDG1, Agonist, 1 uM): 0.1% | activity at 10 µM (168 GPCRs [3]; Agonist mode, 10 uM): 0.4% | activity at 1 µM (168 GPCRs [3]; Agonist, 1 uM): 0.4% | activity at 10 µM (168 GPCRs [4]; CXCR7, Agonist mode, 10 uM): -0.8% | activity at 1 µM (168 GPCRs [4]; CXCR7, Agonist, 1 uM): -1.3% | activity at 10 µM (168 GPCRs [5]; Agonist mode, 10 uM): 0.2% | activity at 1 µM (168 GPCRs [5]; Agonist, 1 uM): -3.5% | activity at 10 µM (168 GPCRs [6]; Agonist mode, 10 uM): -1.1% | activity at 1 µM (168 GPCRs [6]; Agonist, 1 uM): -1.4% | activity at 1 µM (168 GPCRs [7]; 1 uM): -3.4% | activity at 10 µM (168 GPCRs [7]; 10 uM): -3.7% | activity at 10 µM (168 GPCRs [8]; SSTR5, Agonist mode, 10 uM): -1.3% | activity at 1 µM (168 GPCRs [8]; SSTR5, Agonist, 1 uM): -2.4% | activity at 1 µM (168 GPCRs [9]; 1 uM): -0.6% | activity at 10 µM (168 GPCRs [9]; 10 uM): -0.5% | activity at 10 µM (168 GPCRs [10]; GALR1, Agonist mode, 10 uM): 0.6% | activity at 1 µM (168 GPCRs [10]; GALR1, Agonist, 1 uM): 0.8% | activity at 10 µM (168 GPCRs [11]; NPBWR2, Agonist mode, 10 uM): 1.35% | activity at 1 µM (168 GPCRs [11]; NPBWR2, Agonist, 1 uM): -0.3% | activity at 10 µM (168 GPCRs [12]; Agonist mode, 10 uM): 0.5% | activity at 1 µM (168 GPCRs [12]; Agonist, 1 uM): 1% | activity at 10 µM (168 GPCRs [13]; Agonist mode, 10 uM): -0.2% | activity at 1 µM (168 GPCRs [13]; Agonist, 1 uM): -2.2% | activity at 1 µM (168 GPCRs [14]; 1 uM): -2.9% | activity at 10 µM (168 GPCRs [14]; 10 uM): -3.3% | activity at 10 µM (168 GPCRs [15]; P2RY6, Agonist mode, 10 uM): 2.4% | activity at 1 µM (168 GPCRs [15]; P2RY6, Agonist, 1 uM): 4.5% | activity at 10 µM (168 GPCRs [16]; PROKR2, Agonist mode, 10 uM): -0.6% | activity at 1 µM (168 GPCRs [16]; PROKR2, Agonist, 1 uM): -0.6% | activity at 10 µM (168 GPCRs [17]; GPR103, Agonist mode, 10 uM): 3.13% | activity at 1 µM (168 GPCRs [17]; GPR103, Agonist, 1 uM): 0.8% | activity at 10 µM (168 GPCRs [18]; Agonist mode, 10 uM): 2% | activity at 1 µM (168 GPCRs [18]; Agonist, 1 uM): 1.3% | activity at 1 µM (168 GPCRs [19]; 1 uM): 8.4% | activity at 10 µM (168 GPCRs [19]; 10 uM): 12.9%
